Assay results as given in patent US20030044413A1, “Methods of limiting apoptosis of cells” (Regents of the University of Minnesota, priority 1998, published 2003).
Where two headings read alike, the source gives them in different places.

Key:
[1] = tested on: hepatocytes, HuH-7, Hep G2 and Saos-2 cells; assay: Coadministration of UDCA with each apoptosis-inducing agent, all cell types; assay type: cell-based
Method: Incubation of cells with bile acids. […] The medium was gently removed at the indicated time points and scored for nonviable cells by trypan blue dye exclusion. The attached cells were fixed for morphologic assessment of apoptotic changes. […] HuH-7 cells were incubated with Dulbecco's medium supplemented with either 1 nM TGF-β1 (R & D Systems, Minneapolis, Minn.), 100 μM UDCA, TGF-β1+UDCA, or no addition (control) for 24 h, 48 h, and 72 h. Hep G2 cells were incubated with Dulbecco's medium supplemented with either 0.5 μg/ml of anti-Fas antibody CH-11 (Upstate Biotechnology, Inc., Lake Placid, N.Y.), 100 μM UDCA, CH-11+UDCA, or no addition for 48 h. […] Morphological evaluation of apoptosis. Morphology was performed as described previously (Oberhammer et al., Proc. Natl. Acad. Sci. USA 89, 5408-5412 (1992)). […] Fluorescence was visualized with a Zeiss standard fluorescence microscope (Carl Zeiss, Inc., Thornwood, N.Y.). Photographs were taken with Kodak Ektar-1000 film (Eastman Kodak Co.). Stained nuclei were scored by blind analysis and categorized according to the condensation and staining characteristics of chromatin. Normal nuclei were identified as noncondensed chromatin dispersed over the entire nucleus. Apoptotic nuclei were identified by condensed chromatin, contiguous to the nuclear membrane, as well as nuclear fragmentation of condensed chromatin.

cytochrome c = assay: Cytochrome c content of cytosol and mitochondria of rat hepatocytes; assay type: cell-based; conditions: Hepatocyte, hepatocytes with DCA, TGF-β1 or okadaic acid, 100 μM UDCA
Method: Isolation of cytosol and mitochondrial fractions and determination of cytochrome c and Bax content. Freshly isolated rat hepatocytes were cultured for 3 hours as described above and then incubated with William's medium supplemented with either 50 μM of DCA for 4 h, 1 nM TGF-β1 for 24 h and […] okadaic acid for 16 h, in the presence or absence of 100 μM UDCA, or no addition (control). Time-course experiments were also performed. Cells (1.0×10^7/ml) were harvested by centrifugation at 600×g for 5 min at 4° C. The cell pellets were washed once in ice-cold PBS and resuspended with 3 volumes of isolation buffer containing 20 mM Hepes-KOH, pH 7.5, 10 mM KCl, 1.5 mM MgCl2, 1 mM sodium EDTA, 1 mM sodium EGTA, 1 mM dithiothreitol (DTT), suplemmented with the COMPLETE protease inhibitor cocktail (Boehringer Mannheim Biochemicals, Inc., Indianapolis, Ind.) in 250 mM sucrose. After chiling on ice for 15 min, the cells were disrupted by 40 stokes of a glass homogeneizer and the homogenates were centrifuged twice at 2,500×g for 10 min at 4° C. to remove unbroken cells and nuclei. The mitochondria were pelleted by centrifugation at 12,000×g for 30 min at 4° C., resuspended in isolation buffer containing 250 mM sucrose and frozen at −80° C. […]

Hep G2 cells = assay: Anti-Fas antibody-induced apoptosis, Hep G2 cells; assay type: cell-based
Method: Incubation of cells with ethanol, TGF-β1, anti-Fas antibody or okadaic acid. Freshly isolated rat hepatocytes were cultured for 3 h as described above and then incubated with William's E medium supplemented with either 0.5% ethanol, 50 μM UDCA, ethanol plus UDCA, or no addition (control) for 2 h and 4 h. HuH-7 cells were incubated with Dulbecco's medium supplemented with either 1 nM TGF-β1 (R & D Systems, Minneapolis, Minn.), 100 μM UDCA, TGF-β1+UDCA, or no addition (control) for 24 h, 48 h, and 72 h. Hep G2 cells were incubated with Dulbecco's medium supplemented with either 0.5 μg/ml of anti-Fas antibody CH-11 (Upstate Biotechnology, Inc., Lake Placid, N.Y.), 100 μM UDCA, CH-11+UDCA, or no addition for 48 h. Both HuH-7 cells and human osteogenic sarcoma Saos-2 cells were cultured in Dulbecco's medium supplemented with either 50 nM okadaic acid (Boehringer Mannheim Biochemicals, Inc, Indianapolis, Ind.), 100 μM UDCA, okadaic acid+UDCA, or no addition for 48 h. […]
Morphological evaluation of apoptosis. […] Fluorescence was visualized with a Zeiss standard fluorescence microscope (Carl Zeiss, Inc., Thornwood, N.Y.). […] Stained nuclei were scored by blind analysis and categorized according to the condensation and staining characteristics of chromatin. […] Three fields per dish of approximately 500 nuclei were counted; mean values are expressed as the percent of apoptotic nuclei.

Bad = assay: Western blot, liver of bile acid fed rats: Bad; assay type: in vivo, rat; conditions: bile acid feeding
Method: Male 160-175 g Sprague-Dawley rats (Sprague-Dawley, Indianapolis, Ind.), were maintained on a 12 h light-dark cycle and fed standard laboratory chow ad libitum for 3 days. The animals were then transferred to metabolic cages and fed diets of standard laboratory chow supplemented with either no bile acid or 0.4% (wt/wt) DCA, 0.4% UDCA, or a combination of DCA+UDCA (Bio-Serv, Frenchtown, N.J.). On day 10, the animals were sacrificed by exsanguination under ether anesthesia between 9 a.m. and 11 a.m. The livers were removed, rinsed in normal saline, and flash-frozen in liquid nitrogen until western blot analyses of apoptosis-related proteins were performed.
Cytoplasmic proteins were isolated from rat liver tissue as described previously (Trembley et al., Cell Growth & Differ., 7, 903-916 (1996)). […] Cytoplasmic and mitochondrial protein concentrations were determined using the Bio-Rad protein assay (Bio-Rad Laboratories). […]
Video densitometry was accomplished using a Macintosh II (Apple Computer, Cupertino, Calif.) coupled to a Data Translation DT2255 video digitizer (Data Translation, Marlboro, Mass.) and a JVC GX-N8 video camera (JVC Corporation of America, Elmwood Park, N.J.) as described previously (Kren et al., J. Cell Biol., 123, 707-718 (1993)). Quantitation of the autoradiograms was performed using the NIH Image 1.4 densitometric analysis program.

Row | Compound | inhibition of apoptotic changes [1] | inhibition at 100 µM (cytochrome c; read-out: inhibition of cytochrome c depletion from the mitochondria) | inhibition at 100 µM (cytochrome c; read-out: inhibition of cytochrome c release to the cytosol) | cells exhibiting apoptotic changes (Hep G2 cells; 0.5 μg/ml CH-11 or 100 μM UDCA alone, 48 h) | Inhibition % Apoptosis (Hep G2 cells; inducer CH-11, Hep G2, inhibition by UDCA) | cytoplasmic Bad expression, increase (Bad)
1 | C[C@H](CCC(=O)O)[C@H]1CC[C@H]2[C@@H]3[C@@H](O)C[C@@H]4C[C@H](O)CC[C@]4(C)[C@H]3CC[C@]12C [UDCA, ursodeoxycholic acid] | 50-100% | 70% | 60% | 0.7% | 83.2 ± 7.0% | 
2 | C[C@H](CCC(=O)O)[C@H]1CC[C@H]2[C@@H]3CC[C@@H]4C[C@H](O)CC[C@]4(C)[C@H]3C[C@H](O)[C@]12C [DCA, deoxycholic acid] |  |  |  |  |  | approximately 2 fold
